Experimental data reported in patent publication US12240844B2 (Voronoi, Inc., priority 2019, dated 2025).

Key:
Format in all cases: biochemical
human GST-CLK1 (129-end) = molecular target: T1, human GST-CLK1 (129-end) (Homo sapiens, UniProt P49759); experiment: GST-CLK1 enzyme inhibition, ADP-Glo kinase assay; details: ATP 10 uM
T1 construct: purified human GST-CLK1 (129-end, Signalchem) enzyme; GST; purchased Signalchem
Summary of the method: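 ADP formation was read by ADP-Glo luminescence after 1 h at 25° C with 3 ng human GST-CLK1 (129-end), substrate and 10 uM ATP in Tris pH 7.4 buffer containing MgCl2, BSA and DTT. Inhibition relative to untreated solvent control gave IC50 (nM), run in triplicate.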

[1] = molecular target: T2, human GST-DYRK1A (full length) (Homo sapiens, UniProt Q13627); experiment: GST-DYRK1A enzyme inhibition, ADP-Glo kinase assay; details: read-out: DYRK1 IC50
T2 construct: purified human GST-DYRK1A (full length, Thermo scientifics) enzyme; GST; purchased Thermo scientifics
Summary of the method: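 ADP-Glo luminescence quantified kinase activity after a 1 h, 25° C reaction of 10 ng full-length GST-tagged human DYRK1A, substrate and 10 uM ATP in Tris-HCl buffer pH 7.4 with MgCl2, BSA and DTT. Triplicate IC50 values (nM) calculated relative to untreated solvent control.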

LRRK2 (G2019S) = LRRK2 (G2019S) (Homo sapiens, UniProt Q5S007, G2019S); experiment: LRRK2 G2019S enzyme inhibition, ADP-Glo kinase assay; set-up: purchased SignalChem L10-12GG
Method: In order to evaluate the inhibitory activity of the compounds according to the present invention on LRRK2, LRRK2 (G2019S), DYRK1, CLK1 and TTK kinases, the following experiment was performed.
Example compounds were reacted with the purified human LRRK2 G2019S (L10-12GG, SignalChem) enzyme to evaluate the enzyme inhibitory ability as follows. The reaction buffer was used as the composition of 40 mM Tris-HCl pH7.4, 20 mM MgCl2, 0.5 mg/ml BSA and 50 μM DTT, and the reaction of all test materials was performed on the reaction buffer. The compound was diluted with 10 mM DMSO stock in 12 steps by a serial dilution method, and the enzyme activity was measured at the final compound concentrations of 50, 10, 2, 0.4, 0.08, 0.016, 0.0032, 0.00064, 0.000128, 0.0000256, 0.00000512 and 0.000001024 μM. In the test, the human LRRK2 G2019S (16 ng) enzyme was reacted with the purified ATP (25 μM) and an enzyme substrate (0.2 μg) at 25° C. for 2 hours, and then the enzyme activity was identified using the in vitro ADP-Glo™ kinase assay (promega). The enzyme activity reaction liquid, an ADP-Glo reaction liquid and an enzyme potency detection solution were reacted in a ratio of 2:2:1, and the degree of inhibition of enzyme activity was measured by Luminescence. The degree of inhibition of enzyme activity according to the treatment concentrations of the respective compounds was calculated based on the fluorescence of the enzyme activity of a solvent control group that was not treated with the compound, where the concentration of each compound to inhibit enzyme activity inhibition by 50% was determined as an IC50 (nM) value and obtained using Prism (Version 5.01, GraphPad) software.
In the table below, the following designations were used for the evaluation of enzyme inhibitory ability.

Sequence of LRRK2 (G2019S) (Q5S007 970-2527 G2019S limits assumed): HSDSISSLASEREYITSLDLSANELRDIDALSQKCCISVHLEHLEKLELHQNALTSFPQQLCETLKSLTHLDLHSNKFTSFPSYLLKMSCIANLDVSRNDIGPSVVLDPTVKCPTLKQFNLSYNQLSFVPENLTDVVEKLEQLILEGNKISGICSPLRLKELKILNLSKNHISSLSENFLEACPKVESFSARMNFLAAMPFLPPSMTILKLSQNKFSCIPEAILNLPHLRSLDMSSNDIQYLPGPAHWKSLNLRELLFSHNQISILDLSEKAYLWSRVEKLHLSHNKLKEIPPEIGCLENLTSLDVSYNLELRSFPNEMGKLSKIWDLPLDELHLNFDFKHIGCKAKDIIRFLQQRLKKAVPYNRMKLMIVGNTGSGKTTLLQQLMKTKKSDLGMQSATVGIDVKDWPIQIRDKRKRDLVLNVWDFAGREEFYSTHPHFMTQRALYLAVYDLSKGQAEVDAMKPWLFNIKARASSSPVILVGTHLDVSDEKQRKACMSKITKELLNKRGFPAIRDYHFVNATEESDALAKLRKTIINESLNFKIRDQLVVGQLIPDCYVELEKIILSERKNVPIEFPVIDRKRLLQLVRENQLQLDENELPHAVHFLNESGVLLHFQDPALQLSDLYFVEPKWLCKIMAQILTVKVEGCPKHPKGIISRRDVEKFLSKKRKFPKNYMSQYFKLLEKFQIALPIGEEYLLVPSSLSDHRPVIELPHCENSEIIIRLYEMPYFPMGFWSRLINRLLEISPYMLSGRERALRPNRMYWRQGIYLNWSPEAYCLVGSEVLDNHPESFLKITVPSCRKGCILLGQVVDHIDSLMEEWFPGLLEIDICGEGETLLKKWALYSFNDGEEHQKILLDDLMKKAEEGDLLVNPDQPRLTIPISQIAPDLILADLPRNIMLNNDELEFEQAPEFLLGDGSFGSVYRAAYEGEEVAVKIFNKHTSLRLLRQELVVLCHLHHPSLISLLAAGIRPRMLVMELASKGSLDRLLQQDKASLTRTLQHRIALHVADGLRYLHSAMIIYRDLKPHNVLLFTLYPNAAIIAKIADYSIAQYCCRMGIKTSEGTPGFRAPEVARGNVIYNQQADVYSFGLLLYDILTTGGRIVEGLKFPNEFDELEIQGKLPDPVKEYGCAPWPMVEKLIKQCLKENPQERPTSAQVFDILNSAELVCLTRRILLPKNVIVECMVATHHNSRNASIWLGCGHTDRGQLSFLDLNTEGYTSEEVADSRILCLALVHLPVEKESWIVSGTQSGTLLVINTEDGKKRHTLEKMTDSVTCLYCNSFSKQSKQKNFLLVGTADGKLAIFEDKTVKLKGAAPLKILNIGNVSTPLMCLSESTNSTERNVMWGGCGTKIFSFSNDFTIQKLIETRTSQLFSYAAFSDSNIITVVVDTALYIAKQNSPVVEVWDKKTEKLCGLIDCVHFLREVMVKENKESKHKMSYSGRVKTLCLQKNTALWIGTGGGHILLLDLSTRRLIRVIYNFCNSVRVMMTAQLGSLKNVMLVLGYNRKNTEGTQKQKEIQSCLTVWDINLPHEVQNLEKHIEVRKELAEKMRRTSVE
T1 sequence (P49759 129-484 limits assumed): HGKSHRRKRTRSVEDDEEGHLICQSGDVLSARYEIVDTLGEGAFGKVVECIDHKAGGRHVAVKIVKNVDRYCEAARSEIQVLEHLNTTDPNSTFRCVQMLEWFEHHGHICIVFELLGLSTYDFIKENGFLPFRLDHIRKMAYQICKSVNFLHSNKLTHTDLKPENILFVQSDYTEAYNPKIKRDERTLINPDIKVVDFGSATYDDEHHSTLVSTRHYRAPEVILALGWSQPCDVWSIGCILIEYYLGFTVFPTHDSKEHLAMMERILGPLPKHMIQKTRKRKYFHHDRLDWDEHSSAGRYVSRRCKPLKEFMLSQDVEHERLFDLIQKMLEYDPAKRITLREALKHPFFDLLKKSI

| Structure (SMILES) | IC50 (human GST-CLK1 (129-end)) [nM] | IC50 [1] [nM] | IC50 (LRRK2 (G2019S)) [nM] |
| --- | --- | --- | --- |
| CC(C)CNc1cc(Nc2ccc(C(=O)N3CCOCC3)c3c2OCCO3)nc2[nH]ccc12 [Example 6, (8-((4-(isobutylamino)-1H-pyrrolo[2,3-b]pyridin-6-yl)amino)-2,3-dihydrobenzo [b] [1,4]dioxin-5-yl)(morpholino) methanone] | 301 to 1000 | 301 to 1000 | < 100 |
| COc1cc(S(=O)(=O)N2CCC(N3CCOCC3)CC2)ccc1Nc1cc(NC2CC2)c2cc[nH]c2n1 [Example 22, N^4-cyclopropyl-N^6-(2-methoxy-4-((4-morpholinopiperidin-1-yl)sulfonyl)phenyl)-1H-pyrrolo[2,3-b]pyridine-4,6-diamine] | 301 to 1000 | 301 to 1000 | < 100 |
| CS(=O)(=O)CCNc1cc(Nc2ccc(C(=O)N3CCOCC3)c3c2OCCO3)nc2[nH]cc(Cl)c12 [Example 63, (8-((3-chloro-4-((2-(methylsulfonyl)ethyl)amino)-1H-pyrrolo[2,3-b]pyridin-6-yl)amino)-2,3-dihydrobenzo[b] [1,4]dioxin-5-yl)(morpholino) methanone] | 301 to 1000 | 301 to 1000 | < 100 |
| CNc1cc(Nc2ccc(S(C)(=O)=O)cc2OC)nc2[nH]cc(Cl)c12 [Example 80, 3-chloro-N^6-(2-methoxy-4-(methylsulfonyl)phenyl)-N^4-methyl-1H-pyrrolo[2,3-b]pyridine-4,6-diamine] | 301 to 1000 | 301 to 1000 | < 100 |
| CC(C)Nc1cc(Nc2ccc(C(=O)N3CCOCC3)c3c2OCCO3)nc2[nH]cc(Cl)c12 [Example 59, (8-((3-chloro-4-(isopropylamino)-1H-pyrrolo[2,3-b]pyridin-6-yl)amino)-2,3-dihydrobenzo [b] [1,4]dioxin-5-yl)(morpholino) methanone] | 301 to 1000 | 301 to 1000 | 301 to 1000 |
| O=C(c1ccc(Nc2cc(NC3CCCCC3)c3cc[nH]c3n2)c2c1OCCO2)N1CCOCC1 [Example 8, (8-((4-(cyclohexylamino)-1H-pyrrolo[2,3-b]pyridin-6-yl)amino)-2,3-dihydrobenzo[b] [1,4]dioxin-5-yl)(morpholino) methanone] | 301 to 1000 | 301 to 1000 | 101 to 300 |
| O=C(c1ccc(Nc2cc(NC3CC3)c3c(Cl)c[nH]c3n2)c2c1OCCO2)N1CCOCC1 [Example 60, (8-((3-chloro-4-(cyclopropylamino)-1H-pyrrolo[2,3-b]pyridin-6-yl)amino)-2,3-dihydrobenzo [b] [1,4]dioxin-5-yl)(morpholino) methanone] | 301 to 1000 | 301 to 1000 | < 100 |
| COc1cc(S(=O)(=O)N2CCC(N3CCOCC3)CC2)ccc1Nc1cc(NC2CCCC2)c2c(C#N)c[nH]c2n1 [Example 136, 4-(cyclopentylamino)-6-((2-methoxy-4-((4-morpholinopiperidin-1-yl)sulfonyl)phenyl)amino)-1H-pyrrolo[2,3-b]pyridine-3-carbonitrile] | 301 to 1000 | 301 to 1000 | < 100 |
| COc1cc(S(C)(=O)=O)ccc1Nc1cc(NC(C)C)c2c(Cl)c[nH]c2n1 [Example 83, 3-chloro-N^4-isopropyl-N^6-(2-methoxy-4-(methylsulfonyl)phenyl)-1H-pyrrolo[2,3-b]pyridine-4,6-diamine] | 301 to 1000 | 301 to 1000 | 301 to 1000 |
| COc1cc(S(=O)(=O)N2CCOCC2)ccc1Nc1cc(NCC(C)C)c2cc[nH]c2n1 [Example 14, N^4-isobutyl-N^6-(2-methoxy-4-(morpholinosulfonyl)phenyl)-1H-pyrrolo[2,3-b]pyridine-4,6-diamine] | 301 to 1000 | 301 to 1000 | 301 to 1000 |
| CCNc1cc(Nc2ccc(C(=O)N3CCN(C(C)C)CC3)c3c2OCC3)nc2[nH]cc(C(F)(F)F)c12 [Example 254, (7-((4-(ethylamino)-3-(trifluoromethyl)-1H-pyrrolo[2,3-b]pyridin-6-yl)amino)-2,3-dihydrobenzofuran-4-yl)(4-isopropylpiperazin-1-yl)methanone] | < 100 | < 100 | < 100 |
| COc1cc(S(C)(=O)=O)ccc1Nc1cc(NC2CC2)c2c(Cl)c[nH]c2n1 [Example 84, 3-chloro-N^4-cyclopropyl-N^6-(2-methoxy-4-(methylsulfonyl)phenyl)-1H-pyrrolo[2,3-b]pyridine-4,6-diamine] | 301 to 1000 | 301 to 1000 | 301 to 1000 |
| COc1cc(S(=O)(=O)N2CCC(N3CCOCC3)CC2)ccc1Nc1cc(NCCS(C)(=O)=O)c2cc[nH]c2n1 [Example 24, N^6-(2-methoxy-4-((4-morpholinopiperidin-1-yl)sulfonyl)phenyl)-N^4-(2-(methylsulfonyl)ethyl)-1H-pyrrolo[2,3-b]pyridine-4,6-diamine] | 301 to 1000 | 301 to 1000 | < 100 |
| CCCNc1cc(Nc2ccc(C(=O)N3CCOCC3)c3c2OCCO3)nc2[nH]ccc12 [Example 4, morpholino(8-((4-(propylamino)-1H-pyrrolo[2,3-b]pyridin-6-yl)amino)-2,3-dihydrobenzo [b] [1,4]dioxin-5-yl)(morpholino) methanone 2,2,2-trifluoroacetate] | 301 to 1000 | 301 to 1000 | < 100 |
| COc1cc(S(=O)(=O)N2CCC(N3CCOCC3)CC2)ccc1Nc1cc(NC(C)C)c2c(Cl)c[nH]c2n1 [Example 75, 3-chloro-N^4-isopropyl-N^6-(2-methoxy-4-((morpholinopiperidin-1-yl)sulfonyl)phenyl)-1H-pyrrolo[2,3-b]pyridine-4,6-diamine] | 301 to 1000 | 301 to 1000 | < 100 |
| O=C(c1ccc(Nc2cc(NC3CC3)c3cc[nH]c3n2)c2c1OCCO2)N1CCOCC1 [Example 7, (8-((4-(cyclopropylamino)-1H-pyrrolo[2,3-b]pyridin-6-yl)amino)-2,3-dihydrobenzo [b] [1,4]dioxin-5-yl)(morpholino) methanone] | 301 to 1000 | 301 to 1000 | < 100 |
| C=CCNc1cc(Nc2ccc(C(=O)N3CC[C@@H](N4CCOCC4)C3)c3c2OCC3)nc2[nH]cc(C(F)(F)F)c12 [Example 261, (R)-(7-((4-(allylamino)-3-(trifluoromethyl)-1H-pyrrolo[2,3-b]pyridin-6-yl)amino)-2,3-dihydrobenzofuran-4-yl)(3-morpholinopyrrolidin-1-yl)methanone] | < 100 | 101 to 300 | < 100 |
| CNc1cc(Nc2ccc(C(=O)N3CCOCC3)c3c2OCCO3)nc2[nH]ccc12 [Example 2, (8-((4-(Methylamino)-1H-pyrrolo[2,3-b]pyridine-6-yl)amino)-2,3-dihydrobenzo[b] [1,4]dioxin-5-yl)(morpholino) methanone] | 301 to 1000 | 301 to 1000 | < 100 |
| CNc1cc(Nc2ccc(S(=O)(=O)N3CCC(N4CCOCC4)CC3)cc2OC)nc2[nH]cc(Cl)c12 [Example 73, 3-chloro-N^6-(2-methoxy-4-((morpholinopiperidin-1-yl)sulfonyl)phenyl)-N^4-methyl-1H-pyrrolo[2,3-b]pyridine-4,6-diamine] | 301 to 1000 | 301 to 1000 | < 100 |
| CCCNc1cc(Nc2ccc(S(=O)(=O)N3CCC(N4CCOCC4)CC3)cc2OC)nc2[nH]ccc12 [Example 20, N^6-(2-methoxy-4-((4-morpholinopiperidin-1-yl)sulfonyl)phenyl)-N^4-propyl-1H-pyrrolo[2,3-b]pyridine-4,6-diamine] | 301 to 1000 | 301 to 1000 | < 100 |
| CS(=O)(=O)CCNc1cc(Nc2ccc(C(=O)N3CCOCC3)c3c2OCCO3)nc2[nH]ccc12 [Example 9, (8-((4-((2-(methylsulfonyl)ethyl)amino)-1H-pyrrolo[2,3-b]pyridin-6-yl)amino)-2,3-dihydrobenzo[b] [1,4]dioxin-5-yl)(morpholino) methanone] | 301 to 1000 | 301 to 1000 | < 100 |
| CCCNc1cc(Nc2ccc(S(C)(=O)=O)cc2OC)nc2[nH]cc(Cl)c12 [Example 82, 3-chloro-N^6-(2-methoxy-4-(methylsulfonyl)phenyl)-N^4-propyl-1H-pyrrolo[2,3-b]pyridine-4,6-diamine] | 301 to 1000 | 301 to 1000 | 301 to 1000 |
